pEC50: −log10 of the molar value.
How the values were obtained:
[1] = target: T1, human TREX2 (residues M44-A279) (Homo sapiens, UniProt Q9BQ50); assay: TREX2 Biochemical Assay (fluorescence assay, degradation of dsDNA substrate); settings: 2.5 nM TREX2, 60 nM dsDNA substrate, 25 minutes at room temperature; read-out: hTREX2 EC50
T1 construct: human TREX2 (residues M44-A279, expressed in E. coli); His-Tev (His tag with TEV protease site) (N); made in house; host or cells: E. coli
T1 sequence (Q9BQ50 44-279 isoform Q9BQ50-1): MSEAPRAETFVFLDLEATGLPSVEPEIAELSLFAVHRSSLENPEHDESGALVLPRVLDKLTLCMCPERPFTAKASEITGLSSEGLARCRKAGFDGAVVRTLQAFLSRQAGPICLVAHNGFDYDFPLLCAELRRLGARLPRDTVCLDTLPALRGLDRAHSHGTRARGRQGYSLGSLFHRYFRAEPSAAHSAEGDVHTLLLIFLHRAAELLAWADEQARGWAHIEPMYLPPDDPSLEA
Method: Degradation of the dsDNA liberates free fluorophore to produce a fluorescent signal. Specifically, 7.5 μL of N-terminally His-Tev tagged human TREX2 (residues M44-A279, expressed in E. coli and purified in house) in reaction buffer (50 mM Tris (pH 7.4), 150 mM NaCl, 2 mM DTT, 0.1 mg/mL BSA, 0.01% (v/v) Tween-20 and 100 mM MgCl2) was added to a 384-well Black ProxiPlate Plus (Perkin Elmer) which already contained compound (150 nL) at varying concentrations as a 10-point dose-response in DMSO. To this was added 7.5 μL of dsDNA substrate (Strand A: 5′ TEX615/GCT AGG CAG 3′; Strand B: 5′ CTG CCT AGC/IAbRQSp (IDT)) in reaction buffer. Final concentrations were 2.5 nM TREX2, 60 nM dsDNA substrate in reaction buffer with 1.0% DMSO (v/v). After 25 minutes at room temperature, reactions were quenched by the addition of 5 μL of stop buffer (same as reaction buffer plus 200 mM EDTA). Final concentrations in the quenched reaction mixture were […] TREX2, 45 nM DNA and 50 mM EDTA in a volume of 20 μL. After a 5-minute incubation at room temperature, plates were read in a laser sourced Envision (Perkin-Elmer), measuring fluorescence at 615 nm following excitation w/570 nm light. IC50 values were calculated by comparing the measured fluorescence at 615 nm ratio relative to control wells pre-quenched w/stop buffer (100% inhibition) and no inhibitor (0% inhibition) controls as using non-linear least square four parameter fits and either Genedata or GraphPad Prism (GraphPad Software, Inc.).

[2] = target: T2, full length human TREX1 (Homo sapiens, UniProt Q9NSU2); assay: TREX1 Biochemical Assay (fluorescence assay, degradation of dsDNA substrate); settings: 150 pM TREX1, 60 nM dsDNA substrate, 25 minutes at room temperature; read-out: hTREX1 EC50
T2 construct: N-terminally His-Tev tagged full length human TREX1; His-Tev (His tag with TEV protease site) (N); made in house; host or cells: E. coli
T2 sequence (Q9NSU2 1-314): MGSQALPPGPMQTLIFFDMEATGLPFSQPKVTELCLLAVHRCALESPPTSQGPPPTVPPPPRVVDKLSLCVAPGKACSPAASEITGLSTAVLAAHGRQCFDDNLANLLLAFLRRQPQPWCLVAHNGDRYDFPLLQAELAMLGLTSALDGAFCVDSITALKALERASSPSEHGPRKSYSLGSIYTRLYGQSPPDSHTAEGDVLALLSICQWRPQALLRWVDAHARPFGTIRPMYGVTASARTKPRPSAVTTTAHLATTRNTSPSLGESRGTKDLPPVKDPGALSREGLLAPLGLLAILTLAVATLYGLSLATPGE
Method: Degradation of the dsDNA liberates free fluorophore to produce a fluorescent signal. Specifically, 7.5 μL of N-terminally His-Tev tagged full length human TREX1 (expressed in E. coli and purified in house) in reaction buffer (50 mM Tris (pH 7.4), 150 mM NaCl, 2 mM DTT, 0.1 mg/mL BSA, 0.01% (v/v) Tween-20 and 100 mM MgCl2) was added to a 384-well Black ProxiPlate Plus (Perkin Elmer) which already contained compound (150 nL) at varying concentrations as a 10-point dose-response in DMSO. To this was added 7.5 μL of dsDNA substrate (Strand A: 5′ TEX615/GCT AGG CAG 3′; Strand B: 5′ CTG CCT AGC/IAbRQSp (Integrated DNA Technologies)) in reaction buffer. Final concentrations were 150 pM TREX1, 60 nM dsDNA substrate in reaction buffer with 1.0% DMSO (v/v). After 25 minutes at room temperature, reactions were quenched by the addition of 5 μL of stop buffer (same as reaction buffer plus 200 mM EDTA). Final concentrations in the quenched reaction were 112.5 pM TREX1, 45 nM DNA and 50 mM EDTA in a volume of 20 μL. After a 5-minute incubation at room temperature, plates were read in a laser sourced Envision (Perkin-Elmer), measuring fluorescence at 615 nm following excitation w/570 nm light. IC50 values were calculated by comparing the measured fluorescence at 615 nm ratio relative to control wells pre-quenched w/stop buffer (100% inhibition) and no inhibitor (0% inhibition) controls as using non-linear least square four parameter fits and either Genedata or GraphPad Prism (GraphPad Software, Inc.).

SMILES | pEC50 [1] | pEC50 [2]
Nc1ccc(CN(Cc2ccc(Cl)cc2Cl)C(=O)c2cccc(F)c2)cn1 [Compound 146, N-[(6-aminopyridin-3-yl)methyl]-N-[(2,4-dichlorophenyl)methyl]-3-fluorobenzamide] | < 4.00 | 5.00 to 6.00
O=C(c1ccc(F)c(Cl)c1)N(Cc1cccnc1)Cc1cc(Cl)cc(Cl)c1 [Compound 65] | < 4.00 | 5.00 to 6.00
CC(C)c1ccc(C(=O)N(Cc2cccnc2)Cc2ccc(Cl)cc2Cl)cc1 [Compound 85] | < 4.00 | < 5.00
O=C(O)c1ncc(CN(Cc2ccccc2Cl)C(=O)c2cc(F)cc(F)c2)cn1 [Compound 207] | 4.00 to 5.00 | 6.00 to 7.00
O=C(c1cccc(F)c1)N(Cc1cccnc1)[C@@H](CO)c1ccc(Cl)cc1Cl (single isomer, unassigned) [Compound 161] | 4.00 to 5.00 | < 5.00
NCCC[C@H](c1cccc(Cl)c1Cl)N(Cc1cccnc1)C(=O)c1cc(F)cc(F)c1 [Compound 249] | 4.00 to 5.00 | 5.00 to 6.00
CC[C@H](c1cccc(OC2COC2)c1Cl)N(Cc1ccc(C(=O)O)nc1)C(=O)c1cc(F)cc(F)c1 [Compound 231] | 5.00 to 6.00 | 6.00 to 7.00
Cc1cc(C(=O)O)ncc1CN(Cc1cccc(Cl)c1Cl)C(=O)c1cc(F)cc(F)c1 [Compound 205] | > 6.00 | > 7.00
COc1cc(C(=O)N(Cc2cccnc2)Cc2ccc(Cl)cc2Cl)cc(Cl)c1O [Compound 22] | < 4.00 | < 5.00
O=C(c1ccc(O)cc1)N(Cc1cccnc1)Cc1cc(Cl)cc(Cl)c1 [Compound 48] | < 4.00 | < 5.00
Cc1cc(C(=O)N(Cc2cccnc2)Cc2cc(Cl)cc(Cl)c2)cc(C)c1O [Compound 69] | < 4.00 | < 5.00
COc1cc(C(=O)N(Cc2cccnc2)Cc2ccc(Cl)cc2Cl)ccc1F [Compound 80] | < 4.00 | < 5.00
O=C(c1cc(F)ccc1F)N(Cc1cccnc1)Cc1ccc(Cl)cc1Cl [Compound 122] | < 4.00 | < 5.00
O=C(c1cc(F)cc(F)c1)N(Cc1cccnc1CO)Cc1cccc(Cl)c1Cl [Compound 180] | 5.00 to 6.00 | 6.00 to 7.00
O=C(c1ccc(Br)cc1Cl)N(Cc1cccnc1)Cc1ccc(Cl)cc1Cl [Compound 18] | – | < 5.00
O=C(c1ccc(Cl)c(Cl)c1)N(Cc1cccnc1)Cc1ccc(Cl)cc1Cl [Compound 7] | – | < 5.00
Cc1ccc(C(=O)N(Cc2cccnc2)Cc2ccc(Cl)cc2Cl)c(Br)c1 [Compound 9] | – | < 5.00
O=C(c1ccccc1F)N(Cc1cccnc1)Cc1ccc(Cl)cc1Cl [Compound 4] | – | < 5.00
Cc1cc(C(=O)N(Cc2cccnc2)Cc2ccc(Cl)cc2Cl)ccc1Br [Compound 16] | – | < 5.00
O=C(c1ccc(O)c(F)c1)N(Cc1cccnc1)Cc1ccc(Cl)cc1Cl [Compound 21] | – | < 5.00
COc1cccc(C(=O)N(Cc2cccnc2)Cc2ccc(Cl)cc2Cl)c1 [Compound 13] | – | 5.00 to 6.00
O=C(c1ccc(Cl)cc1)N(Cc1cccnc1)Cc1ccc(Cl)cc1Cl [Compound 8] | – | < 5.00

The next lines start with the values.

pEC50 [1] | pEC50 [2] | SMILES
< 4.00 | < 5.00 | COc1cc(C(=O)N(Cc2cccnc2)Cc2cc(Cl)cc(Cl)c2)cc(Br)c1O [Compound 62]
4.00 to 5.00 | 6.00 to 7.00 | O=C(c1cc(F)cc(F)c1)N(Cc1cnc2c(=O)[nH]cnc2c1)Cc1ccccc1Cl [Compound 183]
4.00 to 5.00 | 5.00 to 6.00 | N#CC[C@@H](c1cccc(Cl)c1Cl)N(Cc1cccnc1)C(=O)c1cc(F)cc(F)c1 [Compound 234]
< 4.00 | < 5.00 | COc1cc(C(=O)N(Cc2cccnc2)Cc2cc(Cl)cc(Cl)c2)ccc1F [Compound 50]
< 4.00 | 6.00 to 7.00 | O=C(c1cc(F)cc(F)c1)N(Cc1ccc(-n2cccn2)nc1)Cc1ccc(Cl)cc1Cl [Compound 175]
< 4.00 | 5.00 to 6.00 | O=C(c1ccc(Oc2ccc(Cl)cc2)cc1)N(Cc1cccnc1)Cc1ccc(Cl)cc1Cl [Compound 25]
– | < 5.00 | O=C(c1ccc(Cl)cc1O)N(Cc1cccnc1)Cc1ccc(Cl)cc1Cl [Compound 17]
< 4.00 | 6.00 to 7.00 | NC(=O)Cc1ccc(CN(Cc2ccc(Cl)cc2Cl)C(=O)c2cc(F)cc(F)c2)cn1 [Compound 217]
< 4.00 | < 5.00 | O=C(c1ccc(Oc2ccccc2)cc1)N(Cc1cccnc1)Cc1ccc(Cl)cc1Cl [Compound 33]
4.00 to 5.00 | 6.00 to 7.00 | O=C(O)c1ccc(CN(Cc2sc(Cl)nc2Cl)C(=O)c2cc(F)cc(F)c2)cn1 [Compound 200]
< 4.00 | < 5.00 | O=C(c1cccc(-c2ccccc2)c1)N(Cc1cccnc1)Cc1cc(Cl)cc(Cl)c1 [Compound 56]
4.00 to 5.00 | 6.00 to 7.00 | O=C(c1cc(F)cc(F)c1)N(Cc1ccc(-c2cnn[nH]2)nc1)Cc1ccccc1Cl [Compound 171]
< 4.00 | 5.00 to 6.00 | COc1cccc(CN(Cc2cccnc2)C(=O)c2cccc(F)c2)c1Cl [Compound 127]
4.00 to 5.00 | > 7.00 | O=C(O)c1ncc(CN(Cc2cccc(Cl)c2Cl)C(=O)c2cc(F)cc(F)c2)cc1O [Compound 257]
5.00 to 6.00 | > 7.00 | O=C(O)c1ccc(CN(Cc2cncc(Cl)c2Cl)C(=O)c2cc(F)cc(F)c2)cn1 [Compound 202]
5.00 to 6.00 | > 7.00 | CC[C@@H](c1ccc(OC)c(OC)c1Cl)N(Cc1ccc(C(=O)O)nc1)C(=O)c1cc(F)cc(F)c1 [Compound 227]
4.00 to 5.00 | > 7.00 | COC(=O)CC[C@@H](c1ccccc1Cl)N(Cc1cccnc1)C(=O)c1cc(F)cc(F)c1 [Compound 242]
< 4.00 | < 5.00 | CCC(=O)N(Cc1cccnc1)Cc1ccc(Cl)cc1Cl [Compound 88]
< 4.00 | < 5.00 | O=C(c1cocn1)N(Cc1cccnc1)Cc1ccc(Cl)cc1Cl [Compound 113]
< 4.00 | 5.00 to 6.00 | CS(=O)(=O)NC(=O)c1ccc(CN(Cc2cccc(Cl)c2Cl)C(=O)c2cccc(F)c2)cn1 [Compound 259]
– | < 5.00 | O=C(c1ccc(O)c(Br)c1)N(Cc1cccnc1)Cc1ccc(Cl)cc1Cl [Compound 15]
– | < 5.00 | O=C(c1cc(Cl)ccc1O)N(Cc1cccnc1)Cc1ccc(Cl)cc1Cl [Compound 20]
– | < 5.00 | O=C(c1ccc(O)c(Cl)c1)N(Cc1cccnc1)Cc1ccc(Cl)cc1Cl [Compound 3]
– | < 5.00 | O=C(c1ccc(Cl)cc1Br)N(Cc1cccnc1)Cc1ccc(Cl)cc1Cl [Compound 14]
